Measurements published in patent US11980613B2, “Methods for reversing HIV latency using BAF complex modulating compounds” (priority 2018, dated 2024).
“Also recorded” adds a separate entry of the source.

Assays:
[1] = tested on: Bmi1-luciferase reporter cell line; experiment: Bmi1-luciferase reporter assay (screen for inhibitors of BAF-mediated transcriptional repression); assay type: cell-based, mouse; conditions: grading in words
Description: Low passage mESCs from 129 mice (20 million, p10) were electroporated with 40 μg of a linearized construct consisting of 2 kb homology upstream of the Bmi1 locus, firefly luciferase at exon 1 of Bmi1 followed by loxP neo and a 6 kb 3′ homology arm with thymidine kinase outside the homology arms. The cells were plated on 10 gelatin treated plates (60 mm) of irradiated neo resistant MEFs and selected with G418 and ganciclovir for 5 days. 384 colonies were selected, trypsinized and replated in gelatin treated 24-well plates for expansion. The cells were split and DNA was isolated for digestions with EcoRI or BamHI. We confirmed the successful homologous recombination in 7 out 384 colonies using Southern blot analysis at both the 5′ (EcoRI) and 3′ (BamHI) end (see Table S2 of Marian et al., “Small Molecule Targeting of Specific BAF (mSWI/SNF) Complexes for HIV Latency Reversal,” Cell Chem. Biol. (Dec. 20, 2018) 25: 1443-1445). We deleted the neomycin cassette using transfected Cre recombinase and confirmed the excision at all clones using a second round of Southern blot analysis at the 3′ end (BamHI).
3. Compound Treatment: 10,000 cells in 30 μL ESC media were plated in white 384 well CellBind plates. The cells were cultured in a 37° C., 5% CO2 incubator for 24 h and 100 nL/well of 0.75 mM of positive control (Pubchem SID: 85814977) or 100 nL/well of 3.75 mM compound library (primary screen) was added via pin transfer into plates. There was no effect on assay readout at DMSO concentrations up to 0.5%. The cells were cultured in a 37° C., 5% CO2 incubator for 24 h for luciferase reporter assay and 18 h for qRT-PCR assay. 4. Luciferase assay: (PubChem AID 602393 primary, PubChem AID 651717 confirmatory.) The assay plates were removed from the incubator and equilibrates for 10 minutes to room temperature. Promega SteadyGlo® solution (10 μL/well) was added to each well of the assay plates. The assay plates were mixed at 1000 rpm for 15 seconds and then incubated for 10 minutes at room temperature. The luciferase levels were read on a Perkin Elmer Envision in Ultra Sensitive Luminescence mode. Signals remained stable up to 2 hours. 5. EqRT-PCR secondary screen (PubChem AID 743180, 743177, 743176) The qRTPCR screen was performed as published^54. In brief, 5,000 ES cells were plated on gelatin-coated 384-well tissue culture plates and cultured in a 37C, 5% CO2 incubator. 24 h later, hit compounds in 100 nL DMSO were treated at eight different doses. 18 h after compound treatment cells were washed two times with 100 μL PBS and all excess PBS was removed by centrifuging the plates upside down at 1000 rpm. The Ambion® Cells-to-Ct kit was used to generate cDNA. In brief, the cells were lysed in the plate in 10 μL lysis buffer containing DNase for 10 minutes and quenched with 1 μL lysis stop buffer. The lysate (2 μL) was added to 5 μL RT reaction buffer (2×), 2.5 μL nuclease-free water and 0.5 μL Reverse transcriptase (20×) and incubated at 37° C. for 60 minutes and 95° C. for 1 minute to generate 10 μL of cDNA. cDNA (1 μL) was used in each 5 μL qPCR reaction with Roche master mix and TaqMan probes (Applied Biosystems) for Bmi1-FAM (Mm00776122_gH), Ring1a-FAM (Mm01278940_m1/4331182), or Fgf4-FAM (Mm00438916_g1/4351372) alongside actin-VIC (4352341E) for a loading control. The qPCR was run accordingly: 95° C. for 10 minutes Then 55 cycles of: 95° C. for 10 seconds followed by 60° C. for 30 seconds. The fold increase in transcription was calculated using the ΔΔCT method^84. 6. Viability Assays (PubChem AID: 743188, 743189, 743190, 1053139, 1053140, 1053141)

[2] = tested on: latent HIV-1 in CD4+ T cells from c-ART treated HIV-1 infected patients; experiment: HIV latency reversal from patient samples (cell associated HIV Pol mRNA); assay type: cell-based, human
Description: 23. HIV latency reversal from patient samples: All patients were older than 18 years, c-ART treated for at least 3 years, and their viral loads were below 50 copies/ml for more than 12 months with no blips in the past two years. CD4+ T cells from aviremic HIV+ patients were isolated as described previously^55 with minor modifications. Briefly, frozen PBMCs were cultured in RPMI medium over-night to recover. Then next day CD4+ T cells were isolated twice (enriched CD4+ T cells were subjected to a second round of CD4+ T cell enrichment) and left for 6 hrs to recover. Three million cells were treated with DMSO, 10 μM BRD-K80443127, 200 nM Prostratin, 10 μM BRD-K80443127 and 200 nM prostratin, and αCD3/CD28 magnetic beads (at cell:bead ration 1:1) as a positive control in triplicate. After 24 hours cells were lysed in TRIreagent (Sigma), total RNA was isolated with Total RNA Zol-Out (A&A Biotechnology) kit and cDNA was synthetized using random primers and Superscript II Reverse Transcriptase (Life Technologies). Detection of cellular associated pol RNA was performed as described previously (Pol: For […] (SEQ ID NO:15), Rev-[…] (SEQ ID NO: 16))^55. This study was conducted in accordance with the ethical principles of the Declaration of Helsinki. HIV-1 infected patient volunteers were informed and provided signed consent to participate in the study. The study protocol was approved by The Netherlands Medical Ethics Committee (MEC-2012-583). cDNA generated from control and 10 μM BRD-K80443127 treated samples was used to assess expression of BAF target genes biomarker genes-p21 and C-MYC.

**Q.** For CO[C@H]1CN(C)C(=O)c2cc(NC(=O)OC(C)C)ccc2OC[C@H](C)N(Cc2ccc(-c3ccccn3)cc2)C[C@@H]1C [BRD-K80443127], which “activity in the Bmi1 luciferase reporter assays” value [1] is on record?
**A.** high activity

**Q.** What about the “cell associated HIV mRNA (Pol), response” value ([2]; Patient 1 (one patient), single agents, 24 hours) of the same molecule?
**A.** responded; also recorded: significant increase

**Q.** What about the “potentiation of prostratin activity” value ([2]; all three patients) of the same molecule?
**A.** significant potentiation of prostratin activity

**Q.** What about the “cell associated HIV-1 POL” value ([2]; patient 2 and 3, 24 hours) of the same molecule?
**A.** did not result in a significant increase
